The source of these data is patent US20140243396A1, “METHOD OF TREATING MUCOEPIDERMOID CARCINOMA” (DANA-FARBER CANCER INSTITUTE, INC., priority 2011, published 2014).

Common to all, as to assay type: cell-based
The test system of data set [1] is H292 and H3118 cells. Briefly: MTS proliferation assay. As to conditions: Homo sapiens, NCI-H292, 120 h, MTS assay on day 5 of treatment, read-out: IC50, cell growth. As to the method:
FIG. 6 illustrates PI3-kinase signaling contributes to MEC cell growth. A. Effects of PI3-kinase inhibitor LY-294002 or Compound A on MEC cell growth. […] The same blot was stripped and probed with anti-AKT or anti-V.-actin antibody. Image was cropped and auto-leveled by Photoshop. A representative of three independent experiments. (Right) MEC cell growth was measured by MTS assay on day 5 of LY-294002 or Compound A treatment. Points: mean, bars: SD (n=3). B. Effects of knock-down of PI3-kinase α or β on MEC cell growth. […] cell lysates were prepared on day 5 post-transduction. Image was cropped and auto-leveled by Photoshop. […] Cell numbers were counted by trypan blue exclusion on day 5 posttransduction. […] SD (n=3). **p<0.01, ***p<0.001 compared to control cells. C. […] Cell numbers were counted by trypan blue exclusion on day 5, Columns: mean, bars: SD (n=3). The Methods were described previously (Chen et al. […] On day 5 post infection, cells were counted by trypan blue exclusion. MTS proliferation assay (Promega, Madison, Wis.): 1-2×10^3 cells were treated with LY-294002, Compound A or DMSO in the concentration as indicated in FIG. 6A. MTS activities were measured on day 5. […] DNA amount was measured by flow cytometry analysis (BD FACScans). […] Cell viability was measured using the Annexin-V-FLUOS Staining Kit (Roche Diagnostics, Indianapolis, Ind.) by flow cytometry analysis (BD FACScans).

The test system of data set [2] is H292 and H3118 cells. Briefly: Cell growth, cell count by trypan blue exclusion. As to the method:
(§1) FIG. 2 illustrates inhibition of PDE4B by pharmacological inhibitor rolipram plus forskolin prevents cell growth, causes cell cycle arrest and induces apoptosis in fusion positive MEC cells. Rolipram (R), forskolin (FK), Rolipram plus forskolin (R+FK) or DMSO. Columns: mean, bars: SD (n>3), *p<0.05, **p<0.01, ***p<0.001, compared to HSY cell growth. B. 1×10^5 cells were treated with 50 μM R plus 20 μM FK or DMSO for 24 hours. C. 1×10^5 cells were treated with 50 μM rolipram plus 20 μM forskolin with or DMSO for 48 hours. Apoptosis assay was performed by PI and Annexin-V staining and analyzed by flow cytometry. Columns: mean, bars: SD (n=3). *p<0.05, compared with DMSO treated cells.
FIG. 6 illustrates PI3-kinase signaling contributes to MEC cell growth. A. Effects of PI3-kinase inhibitor LY-294002 or Compound A on MEC cell growth. […] The same blot was stripped and probed with anti-AKT or anti-V.-actin antibody. Image was cropped and auto-leveled by Photoshop. A representative of three independent experiments. (Right) MEC cell growth was measured by MTS assay on day 5 of LY-294002 or Compound A treatment. Points: mean, bars: SD (n=3). B. Effects of knock-down of PI3-kinase α or β on MEC cell growth. […] H3118 cell lysates were prepared on day 5 post-transduction. Image was cropped and auto-leveled by Photoshop. (Lower) Effects of knock-down of PI3-kinase α or β on MEC cell growth. 1×10^5 cells were transduced twice with lenti-viruses harboring shRNAs targeting PI3-K α, β or scramble control. Cell numbers were counted by trypan blue exclusion on day 5 posttransduction. Cell growth of scramble control virus infected cells was set to 100%, Columns: mean, bars: SD (n=3). **p<0.01, ***p<0.001 compared to control cells. C. Effects of Compound A in combination of rolipram plus forskolin on of MEC cell growth. 1×10^5 cells were treated with the combination of inhibitors listed. Cell numbers were counted by trypan blue exclusion on day 5, Columns: mean, bars: SD (n=3).
(§2) The Methods were described previously (Chen et al. Genes Cancer, 1:822-835 (2010)). Cell growth: 1-2×10^5 cells were infected with lenti-virus harboring specific shRNAs. On day 5 post infection, cells were counted by trypan blue exclusion. MTS proliferation assay (Promega, Madison, Wis.): 1-2×10^3 cells were treated with LY-294002, Compound A or DMSO in the concentration as indicated in FIG. 6A. MTS activities were measured on day 5. Cell cycle analysis: 1×10^5 cells were treated with inhibitors or infected with viruses. DNA amount was measured by flow cytometry analysis (BD FACScans). Apoptosis assay: 1×10^5 cells were treated with inhibitors or infected with virus. Cell viability was measured using the Annexin-V-FLUOS Staining Kit (Roche Diagnostics, Indianapolis, Ind.) by flow cytometry analysis (BD FACScans).

Another data set has as its system H292 cells. Briefly: Cell growth, cell count by trypan blue exclusion. As to conditions: PDE4B knock-down, day 5 post-transduction, compared to scramble control. The procedure: (§3) FIG. 3 illustrates knock-down of PDE4B inhibits fusion positive MEC cell growth, causes cell cycle arrest and induces apoptosis. A. H3118 cell lysate was prepared on day 5 post-transduction and subjected to western blot analysis. Image was cropped and auto-leveled by Photoshop. A representative of three independent experiments. B. 1×10^5 MEC cells were infected twice by shRNA No. 1 and No. 2 and cell number was count on day 5 post-transduction by trypan blue exclusion. Columns: mean, bars: SD (n>3). *p<0.05, **p<0.01, compared with scramble control virus infected cell growth. C. 1×10^5 cells were infected twice by shRNA No. 2. Cell cycle was determined by PI staining followed by FACS analysis on day 5 post-transduction, n=3. D. 1×10^5 cells were infected twice by shRNA No. 2. Apoptosis assay was performed by PI and Annexin-V staining and analyzed by flow cytometry on day 5 post-transduction, Columns: mean, bars: SD (n=3). *p<0.05, compared with control cells.
as §2

Data set [3] deals with H3118 cells. Description: Cell growth, cell count by trypan blue exclusion. As to conditions: PDE4B knock-down, day 5 post-transduction, compared to scramble control. The procedure: as §3, §2
In a further data set the test system is HSY cells. Briefly: Cell growth, cell count by trypan blue exclusion. As to the method:
as §1, §3, §2

The test system of another data set is PDE4B. Description: PDE4B expression in cells (qPCR). As to conditions: vs shLUC. As to the method: FIG. 1 illustrates identification of CRTC1-MAML2 Target genes. […] RT-qPCR experiments were performed in triplicates. Columns: mean, bars: SD (n=3). *p<0.05, compared with expression from shLUC infected cells (Student t test). B Inhibition of CRTC1-MAML2 inhibited H3118 and H292 cell growth. Columns: mean, bars: SD (n=3). *p<0.05, **p<0.01, ***p<0.001, compared with shLUC. […] Columns: mean, bars: SD (n=3). […] Image was cropped and auto-leveled by Photoshop. A representative of three independent experiments.
Total RNA was isolated by the Trizol method (Invitrogen). qPCR was performed using ABI PRISM 7500 sequence detector (Applied Biosystems, Foster City, Calif.) by SYBR method (Applied Biosystems). The SYBR method uses SYBR Green I dye, which is a highly specific, double-stranded DNA binding dye, to detect PCR product as it accumulates during PCR cycles. All samples were amplified in triplicates. The relative change of transcript amount was normalized with the GAPDH mRNA expression levels (20).

The subject of data set [4] is H3118 cells. Briefly: Microarray gene expression after CRTC1-MAML2 knock-down. As to the method:
H3118 or HSY cells were transduced twice with retro-virus harboring shLUC or sh#D. GFP-positive cells were sorted 48 hours post-transduction. Total RNA was extracted using Trizol reagents (Invitrogen) and purified by RNAeasy Mini Column (QIAGEN). Hybridization with Affymetrix U133A plus—2 microarray chips was performed and analyzed at Dana-Farber Cancer Institute Microarray Core. The d-Chip analysis software was used for the analysis; Li, C. and Wong, W. H. Proc. Natl. Acad. Sci. USA […]. Genes with three fold expression changes in H3118 cells were considered significant (n=3, p<=0.05).

Setting [5] is: retroviral shRNA, fusion-positive H292 and H3118 cells, compared to shLUC.
Where [6] appears, read: retroviral shRNA, fusion-negative HSY cells, compared to shLUC.

`Cn1c(=O)n(-c2ccc(C(C)(C)C#N)cc2)c2c3cc(-c4cnc5ccccc5c4)ccc3ncc21` [Compound A, 2-methyl-2-[4-(3-methyl-2-oxo-8-quinolin-3-yl-2,3-dihydroimidazo[4,5-c]quinolin-1-yl)-phenyl]propionitrile]: the half-maximal inhibitory concentration (IC50) in the data set on H292 and H3118 cells [1] was 6 to 20 nM. Moreover, in the data set with H292 and H3118 cells [2] (MEC cells, cell count by trypan blue exclusion on day 5), the “effect on MEC cell growth when combined with rolipram and forskolin” value was “additive effect”.

In the case of `O=c1cc(N2CCOCC2)oc2c(-c3ccccc3)cccc12` [LY-294002], in the data set on H292 and H3118 cells [1], the IC50 lay in the range of 4000 to 10000 nM.

As to `COc1ccc(C2CNC(=O)C2)cc1OC1CCCC1` (centres unmarked) [rolipram, 4-(3-cyclopentyloxy-4-methoxyphenyl)pyrrolidin-2-one], the “cell growth (in words)” value in the data set with H292 and H3118 cells [2] (inhibitor treatment, MEC cells) is “not changed”.

As for “shRNA #1: shRNA lenti-viral construct targeting PDE4B, SEQ ID NO 1 (CCGGGCTTGAGTAAATCCTACAGTTCTCGAGAACTGTAGGATTTACTCAAGCTTTTTG)”, the growth inhibition with H292 cells was determined as 74%; with H3118 cells [3] it was 83%. Also, in the data set on HSY cells (HSY cells, PDE4B knock-down), the “cell growth (in words)” value is “slight growth reduction”.

For “shRNA #A: small hairpin RNA targeting the MAML2 moiety of CRTC1-MAML2, GTAATCAACCTAACACATA, SEQ ID NO 3”, the “cell growth (in words)” value was “significantly inhibited cell growth” in the data set on H292 and H3118 cells [2] (setting [5]); “no significant effect” with HSY cells (setting [6]). For the same molecule, the “PDE4B expression (in words)” value in the data set on PDE4B (H3118 and H292 cells) is reported as “significantly inhibited PDE4B expression”; in the data set on PDE4B (fusion negative HSY cells) it was “not”.

For “shRNA #D: small hairpin RNA targeting the MAML2 moiety of CRTC1-MAML2, GACAGAGCCTGGTAATGAT, SEQ ID NO 4”, the “cell growth (in words)” value is given as “significantly inhibited cell growth” with H292 and H3118 cells [2] (setting [5]); “no significant effect” in the data set with HSY cells (setting [6]). The “PDE4B expression (in words)” value in the data set with PDE4B (H3118 and H292 cells) is reported as “significantly inhibited PDE4B expression”; with PDE4B (fusion negative HSY cells) it was “not”. Further, in the data set on H3118 cells [4] (CRTC1-MAML2 depletion), the “PDE4B expression, down-regulation” value is given as 17 fold. For the same molecule, in the data set on H3118 cells [4] (CRTC1-MAML2 knock-down vs luciferase knock-down), the “HES2 expression, up-regulation” value was determined as 7 fold.
